Like-named read-outs stand apart in the source and are kept apart here.

Common to all, as to assay type: in vivo
Assay [1] has as its system Yellow Fever Mosquito (Aedes aegypti, AEDSAE). The conditions noted are these: for YFM rating: Table ABC / ABC-DP rating. The essentials:
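Rating-scale grades reflect larval mortality scored per well after 3 days at room temperature under non-evaporative lids. Larvae (~1 day old, hatched overnight in liver-powder water) were added to six daughter plates per compound, prepared from a 4000 ppm DMSO stock diluted in 90:10 water/acetone.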

Assay [2] concerns Cabbage Looper (Trichoplusia ni, TRIPNI). Nature of the assay: Bioassays on Cabbage Looper (CL), 128-well diet tray assay. The settings on record: Trichoplusia ni. In short, it runs like this:
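One to five second-instar larvae per well on artificial diet surface-treated with 50 μg/cm^2 test molecule (applied in 90:10 acetone-water, dried). Held 5–7 days at 25° C, 14:10 light-dark; percent mortality recorded per well and averaged over eight wells.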

In assay [3] the test system is Beet Armyworm (Spodoptera exigua, LAPHEG). Nature of the assay: Bioassays on Beet Armyworm (BAW), 128-well diet tray assay. The settings on record: Spodoptera exigua. The essentials:
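Larvae at second instar are exposed on dried, compound-treated diet (50 μg/cm^2, delivered in 90:10 acetone-water) in eight replicate wells. After five to seven days at 25° C., 14:10 light-dark, percent mortality in each well is scored and the eight wells averaged.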

The mark [4] stands for this setting: Yellow Fever Mosquito, rating class.
Setting [5] is: Cabbage Looper, rating class, read-out: CL.
The mark [6] stands for this setting: Beet Armyworm, rating class, read-out: BAW.
Where [7] appears, read: Table ABC: Biological Results, species YFM.
The mark [8] stands for this setting: Table ABC: Biological Results, species CL, read-out: CL.
Where [9] appears, read: Table ABC: Biological Results, species BAW, read-out: BAW.
Where [10] appears, read: Cabbage Looper, Table ABC / ABC-DP rating, read-out: CL rating.
[11] abbreviates: Beet Armyworm, Table ABC / ABC-DP rating, read-out: BAW rating.

Consider `O=C(Nc1cc(NC(=O)C(F)(F)F)c(F)cc1F)c1cc(NC(=O)[C@H]2[C@H](c3cc(Cl)c(Cl)c(Cl)c3)C2(Cl)Cl)ccc1F` [F1551, 5-((1R,3R)-2,2-Dichloro-3-(3,4,5-trichlorophenyl)cyclopropane-1-carboxamido)-N-(2,4-difluoro-5-(2,2,2-trifluoroacetamido)phenyl)-2-fluorobenzamide], for which the YFM entry in assay [1] (setting [4]) was “A (80–100)”. Besides, the pest or weed control at 50 µg/cm2 in assay [2] (setting [5]) and in assay [3] (setting [6]) was 50 to 100% in each case.

On to `Nc1c(F)ccc(NC(=O)c2cc(NC(=O)[C@H]3[C@H](c4ccc(Br)c(C(F)(F)F)c4)C3(Cl)Cl)ccc2Cl)c1F` (relative stereo) [F1116, trans-N-(3-Amino-2,4-difluorophenyl)-5-(3-(4-bromo-3-(trifluoromethyl)phenyl)-2,2-dichlorocyclopropane-1-carboxamido)-2-chlorobenzamide], for which the YFM result in assay [1] (setting [7]) is on record as “A (80–100)”. Besides, the pest or weed control at 50 µg/cm2 in assay [2] (setting [8]) and in assay [3] (setting [9]) was 50 to 100% throughout.

As for `O=C(Nc1ccc(F)cc1F)c1cc(NC(=O)[C@H]2[C@@H](c3cc(C(F)(F)F)cc(Cl)c3F)C2(Cl)Cl)ccc1Cl` (relative stereo) [F1051, cis-2-Chloro-5-(2,2-dichloro-3-(3-chloro-2-fluoro-5-(trifluoromethyl)phenyl)cyclopropane-1-carboxamido)-N-(2,4-difluorophenyl)benzamide], the YFM entry in assay [1] (setting [7]) was “A (80–100)”. Moreover, the pest or weed control at 50 µg/cm2 in assay [2] (setting [8]) and in assay [3] (setting [9]) was 50 to 100% in each case.

With `CCC(=O)Nc1c(F)ccc(NC(=O)c2cc(NC(=O)[C@H]3[C@H](c4cc(Cl)c(Cl)c(Cl)c4)C3(Cl)Cl)ccc2Cl)c1F` [F1654, 2-Chloro-5-((1R,3R)-2,2-dichloro-3-(3,4,5-trichlorophenyl)cyclopropane-1-carboxamido)-N-(2,4-difluoro-3-propionamidophenyl)benzamide], the YFM entry in assay [1] (setting [4]) was “A (80–100)”. The pest or weed control at 50 µg/cm2 in assay [2] (setting [5]) and in assay [3] (setting [6]) was 50 to 100% each time.

With `CC(C)(C)OC(=O)Nc1c(F)ccc(NC(=O)c2cc(NC(=O)[C@H]3[C@H](c4ccc(F)c(C(F)(F)F)c4)C3(Cl)Cl)ccc2Cl)c1F` [F1053, tert-Butyl-(3-(2-chloro-5-((1R,3R)-2,2-dichloro-3-(4-fluoro-3-(trifluoromethyl)phenyl)cyclopropane-1-carboxamido)benzamido)-2,6-difluorophenyl)carbamate], in assay [1] (setting [7]), the YFM result is listed as “A (80–100)”. The pest or weed control at 50 µg/cm2 in assay [2] (setting [8]) and in assay [3] (setting [9]) was 50 to 100% each time.

For `CN(NC(=O)c1cc(NC(=O)[C@H]2[C@H](c3cc(Cl)cc(Cl)c3)C2(Cl)Cl)ccc1Cl)C(=O)C1(C#N)CC1` (relative stereo) [F2525, trans-2,2-Dichloro-N-(4-chloro-3-(2-(1-cyanocyclopropane-1-carbonyl)-2-methylhydrazine-1-carbonyl)phenyl)-3-(3,5-dichlorophenyl)cyclopropane-1-carboxamide], the YFM rating entry in assay [1] (Yellow Fever Mosquito) was “A (80–100)”. The pest or weed control at 50 µg/cm2 in assay [2] (setting [10]) and in assay [3] (setting [11]) was 50 to 100% throughout.

Consider `O=C(NNc1ccc(Cl)nn1)c1cc(NC(=O)[C@H]2[C@H](c3cc(Cl)cc(Cl)c3)C2(Cl)Cl)ccc1Cl` (relative stereo) [F2506, trans-2,2-Dichloro-N-(4-chloro-3-(2-(6-chloropyridazin-3-yl)hydrazine-1-carbonyl)phenyl)-3-(3,5-dichlorophenyl)cyclopropane-1-carboxamide], for which, in assay [1] (Yellow Fever Mosquito), the YFM rating entry is on record as “A (80–100)”. The pest or weed control at 50 µg/cm2 in assay [2] (setting [10]) and in assay [3] (setting [11]) was 50 to 100% in each case.

As to `O=C(CCNC(=O)c1cc(NC(=O)C2C(c3cc(Cl)cc(Cl)c3)C2(Cl)Cl)ccc1Cl)NCC(F)(F)F` [F2079, trans-2-Chloro-5-((1R,3R)-2,2-dichloro-3-(3,5-dichlorophenyl)cyclopropane-1-carboxamido)-N-(3-oxo-3-(2,2,2-trifluoroethylamino)propyl)benzamide], in assay [1] (Yellow Fever Mosquito), the YFM rating entry is on record as “A (80–100)”. For the same compound, the pest or weed control at 50 µg/cm2 in assay [2] (setting [10]) and in assay [3] (setting [11]) was 50 to 100% throughout.

`O=C(NCC(F)(F)c1ccccc1)c1cc(NC(=O)[C@H]2[C@H](c3cc(Cl)cc(Cl)c3)C2(Cl)Cl)ccc1Cl` (relative stereo) [F2077, trans-2-Chloro-5-(2,2-dichloro-3-(3,5-dichlorophenyl)cyclopropane-1-carboxamido)-N-(2,2-difluoro-2-phenylethyl)benzamide]: the YFM rating result in assay [1] (Yellow Fever Mosquito) is “B (More than 0 – Less than 80)”. The pest or weed control at 50 µg/cm2 in assay [2] (setting [10]) and in assay [3] (setting [11]) was 50 to 100% in each case.

Regarding `CN(C(=O)c1cc(NC(=O)[C@H]2[C@H](c3ccc(Cl)c(Cl)c3)C2(Cl)Cl)ccc1Cl)N(C)c1ccccc1` [F2544, (1R,3R)-2,2-Dichloro-N-(4-chloro-3-(1,2-dimethyl-2-phenylhydrazine-1-carbonyl)phenyl)-3-(3,4-dichlorophenyl)cyclopropane-1-carboxamide], the YFM rating entry in assay [1] (Yellow Fever Mosquito) was “A (80–100)”. In addition, the pest or weed control at 50 µg/cm2 in assay [2] (setting [10]) and in assay [3] (setting [11]) was 50 to 100% throughout.

On to `O=C(CCNC(=O)c1cc(NC(=O)[C@H]2[C@H](c3cc(Cl)cc(Cl)c3)C2(Cl)Cl)ccc1Cl)NCCC(F)(F)F` (relative stereo) [F2092, trans-2-Chloro-5-(2,2-dichloro-3-(3,5-dichlorophenyl)cyclopropane-1-carboxamido)-N-(3-oxo-3-(3,3,3-trifluoropropylamino)propyl)benzamide], for which the YFM rating entry in assay [1] (Yellow Fever Mosquito) is “B (More than 0 – Less than 80)”. Also, the pest or weed control at 50 µg/cm2 in assay [2] (setting [10]) and in assay [3] (setting [11]) was 50 to 100% throughout.

For `CC(=O)Nc1c(F)ccc(NC(=O)c2cc(NC(=O)[C@H]3[C@H](c4cc(Cl)cc(Cl)c4)C3(Cl)Cl)ccc2Cl)c1Cl` (relative stereo) [F1160, trans-N-(3-acetamido-2-chloro-4-fluorophenyl)-2-chloro-5-(2,2-dichloro-3-(3,5-dichlorophenyl)cyclopropane-1-carboxamido)benzamide], in assay [1] (setting [7]), the YFM entry is given as “A (80–100)”. Also, the pest or weed control at 50 µg/cm2 in assay [2] (setting [8]) and in assay [3] (setting [9]) was 50 to 100% in each case.

As for `Cc1c(N)cccc1NC(=O)c1cc(NC(=O)[C@H]2[C@H](c3ccc(F)c(C(F)(F)F)c3)C2(Cl)Cl)ccc1Cl` [F1448, N-(3-Amino-2-methylphenyl)-2-chloro-5-((1R,3R)-2,2-dichloro-3-(4-fluoro-3-(trifluoromethyl)phenyl)cyclopropane-1-carboxamido)benzamide], in assay [1] (setting [4]), the YFM result is listed as “A (80–100)”. Also, the pest or weed control at 50 µg/cm2 in assay [2] (setting [5]) and in assay [3] (setting [6]) was 50 to 100% throughout.

As to `Cc1c(Cl)cc(NC(=O)[C@H]2[C@H](c3ccc(F)c(Cl)c3)C2(Cl)Cl)cc1C(=O)Nc1ccccc1` (relative stereo) [F1188, trans-3-Chloro-5-(2,2-dichloro-3-(3-chloro-4-fluorophenyl)cyclopropane-1-carboxamido)-2-methyl-N-phenylbenzamide], the YFM result in assay [1] (setting [7]) is “A (80–100)”. The pest or weed control at 50 µg/cm2 in assay [2] (setting [8]) and in assay [3] (setting [9]) was 50 to 100% each time.

As to `CN(C(=O)C(F)F)c1c(F)ccc(NC(=O)c2cc(NC(=O)[C@H]3[C@H](c4cc(Cl)c(Cl)c(Cl)c4)C3(Cl)Cl)ccc2Cl)c1F` [F1461, 2-Chloro-5-((1R,3R)-2,2-dichloro-3-(3,4,5-trichlorophenyl)cyclopropane-1-carboxamido)-N-(3-(2,2-difluoro-N-methylacetamido)-2,4-difluorophenyl)benzamide], the YFM result in assay [1] (setting [4]) is on record as “A (80–100)”. The pest or weed control at 50 µg/cm2 in assay [2] (setting [5]) and in assay [3] (setting [6]) was 50 to 100% in each case.

For the compound `O=C(Nc1ccc(F)c(NC(=O)C(Cl)Cl)c1F)c1cc(NC(=O)[C@H]2[C@H](c3ccc(F)c(C(F)(F)F)c3)C2(Cl)Cl)ccc1Cl` [F1174, 2-Chloro-5-((1R,3R)-2,2-dichloro-3-(4-fluoro-3-(trifluoromethyl)phenyl)cyclopropane-1-carboxamido)-N-(3-(2,2-dichloroacetamido)-2,4-difluorophenyl)benzamide], in assay [1] (setting [7]), the YFM result is listed as “A (80–100)”. Further, the pest or weed control at 50 µg/cm2 in assay [2] (setting [8]) and in assay [3] (setting [9]) was 50 to 100% throughout.

Turning to `O=C(NCC1CC1)NNC(=O)c1cc(NC(=O)[C@H]2[C@H](c3cc(Cl)cc(Cl)c3)C2(Cl)Cl)ccc1Cl` (relative stereo) [F2538, trans-2-(2-Chloro-5-(2,2-dichloro-3-(3,5-dichlorophenyl)cyclopropane-1-carboxamido)benzoyl)-N-(cyclopropylmethyl)hydrazine-1-carboxamide], in assay [1] (Yellow Fever Mosquito), the YFM rating result is reported as “A (80–100)”. In addition, the pest or weed control at 50 µg/cm2 in assay [2] (setting [10]) and in assay [3] (setting [11]) was 50 to 100% throughout.

Values taken from patent publication US20250228239A1, “MOLECULES HAVING PESTICIDAL UTILITY, AND INTERMEDIATES, COMPOSITIONS, AND PROCESSES, RELATED THERETO” (priority 2024, published 2025).
